The text below walks through data of ChEMBL document CHEMBL5370652, “Ligand Sulfur Oxidation State Progressively Alters Galectin-3-Ligand Complex Conformations To Induce Affinity-Influencing Hydrogen Bonds” (J Med Chem, 2023).

By Kd is commonly meant the equilibrium constant for the complex coming apart.

Assay [1] deals with T1, Galectin-3 (Homo sapiens, UniProt P17931). The assay is described as follows: Binding affinity to wild type Galectin-3 (unknown origin) assessed as dissociation constant by fluorescence polarization assay. (In fluorescence polarisation assays a small probe gives low polarisation when free and higher when bound to something large.)
T1 sequence (P17931 whole entry): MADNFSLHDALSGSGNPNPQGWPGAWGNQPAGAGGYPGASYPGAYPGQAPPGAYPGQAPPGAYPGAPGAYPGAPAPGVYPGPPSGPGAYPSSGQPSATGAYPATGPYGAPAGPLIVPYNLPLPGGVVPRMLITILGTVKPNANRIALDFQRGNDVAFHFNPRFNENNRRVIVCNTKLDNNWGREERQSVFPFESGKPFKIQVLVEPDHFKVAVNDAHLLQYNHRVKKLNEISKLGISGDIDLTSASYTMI
In assay [2] the target is T1, Galectin-3.
Description: Binding affinity to Galectin-3 (unknown origin) assessed as change in entropy by isothermal titration calorimetry analysis
The target of assay [3] is T1, Galectin-3. The assay is described as follows: Binding affinity to Galectin-3 (unknown origin) assessed as dissociation constant by fluorescence polarization assay.
For assay [4], the target named is T1, Galectin-3. The source holds these as a separate data set.
Description: Binding affinity to Galectin-3 (unknown origin) assessed as gibbs free energy change by isothermal titration calorimetry analysis
Assay [5] addresses T1, Galectin-3. The source holds these as a separate data set.
Description: Binding affinity to Galectin-3 (unknown origin) assessed as change in enthalpy by isothermal titration calorimetry analysis

Take `Cc1ccc(S[C@@H]2O[C@H](CO)[C@H](O)[C@H](n3cc(S(=O)(=O)c4ccccc4)nn3)[C@H]2O)cc1`: the dissociation constant Kd at Galectin-3 [1] stood at 79 µM.

On Galectin-3 [2], `[O-][S+](c1ccccc1)c1cn([C@H]2[C@@H](O)[C@@H](CO)O[C@@H](S[C@@H]3O[C@H](CO)[C@@H](O)[C@H](O)[C@H]3O)[C@@H]2O)nn1` (stereo not given in full) came in with a -TdeltaS of 0.62 kcal/mol. Also, the Kd on Galectin-3 [3] stood at 55.5 µM. The deltaG at Galectin-3 [4] was -5.55 kcal/mol. The same compound yielded a deltaH at Galectin-3 [5] of -6.17 kcal/mol.
